Test results as given in patent US11578061B2, “Inhibitors of LRRK2 kinase” (Halia Therapeutics, Inc., priority 2021, dated 2023).

target: recombinant human LRRK2 (catalytic domain only [amino acids 970-2527], GST-tagged) (Homo sapiens (Human), UniProt Q5S007); assay: LRRK2 Enzymatic Assay; format: biochemical; conditions: LRRKtide substrate, [32P]-ATP
Experimental: LRRKtide substrate (peptide sequence RLGRDKYKTLRQIRQ, derived from human ezrin [amino acids 561-573], moesin [amino acids 539-553] and radixin [amino acids 558-570], obtained from SignalChem, catalogue #L10-58, reconstituted in 20 mM Tris-HCl at pH 7.5 to a final concentration of 1 mg/mL, assay concentration 20 μM) and recombinant human LRRK2 (catalytic domain only [amino acids 970-2527], GST-tagged, expressed in insect cells, obtained from ThermoFisher Scientific, catalogue #PV4874, 0.35 mg/mL, assay concentration 30 nM) were mixed in assay buffer (20 mM Hepes pH 7.5, 10 mM MgCl2, 1 mM EGTA, 0.02% Brij35, 0.02 mg/ml BSA, 0.1 mM Na3VO4, 2 mM DTT, 1% DMSO). Compounds of interest (in DMSO, serial 3-fold dilution from 10 μM to 0.5 nM) or control (1% DMSO) were dispensed into the kinase reaction mixture by Acoustic technology (Echo550; nanoliter range). After incubation at room temperature for 20 minutes, the kinase reaction was initiated by addition of [^32P]-ATP (Specific activity 10 μCi/μl) and the mixture was incubated at room temperature for 2 hours. The reaction was then stopped by spotting the reaction mixture on strips of phosphocellulose P81 paper. Following washing, the radioactivity of the P81 paper was measured and kinase activity data were expressed as the percent remaining kinase activity in test samples compared to vehicle (dimethyl sulfoxide) reactions. IC50 values and curve fits were obtained using Prism (GraphPad Software).

recombinant human LRRK2 (catalytic domain only [amino acids 970-2527], GST-tagged), sequence (Q5S007 970-2527): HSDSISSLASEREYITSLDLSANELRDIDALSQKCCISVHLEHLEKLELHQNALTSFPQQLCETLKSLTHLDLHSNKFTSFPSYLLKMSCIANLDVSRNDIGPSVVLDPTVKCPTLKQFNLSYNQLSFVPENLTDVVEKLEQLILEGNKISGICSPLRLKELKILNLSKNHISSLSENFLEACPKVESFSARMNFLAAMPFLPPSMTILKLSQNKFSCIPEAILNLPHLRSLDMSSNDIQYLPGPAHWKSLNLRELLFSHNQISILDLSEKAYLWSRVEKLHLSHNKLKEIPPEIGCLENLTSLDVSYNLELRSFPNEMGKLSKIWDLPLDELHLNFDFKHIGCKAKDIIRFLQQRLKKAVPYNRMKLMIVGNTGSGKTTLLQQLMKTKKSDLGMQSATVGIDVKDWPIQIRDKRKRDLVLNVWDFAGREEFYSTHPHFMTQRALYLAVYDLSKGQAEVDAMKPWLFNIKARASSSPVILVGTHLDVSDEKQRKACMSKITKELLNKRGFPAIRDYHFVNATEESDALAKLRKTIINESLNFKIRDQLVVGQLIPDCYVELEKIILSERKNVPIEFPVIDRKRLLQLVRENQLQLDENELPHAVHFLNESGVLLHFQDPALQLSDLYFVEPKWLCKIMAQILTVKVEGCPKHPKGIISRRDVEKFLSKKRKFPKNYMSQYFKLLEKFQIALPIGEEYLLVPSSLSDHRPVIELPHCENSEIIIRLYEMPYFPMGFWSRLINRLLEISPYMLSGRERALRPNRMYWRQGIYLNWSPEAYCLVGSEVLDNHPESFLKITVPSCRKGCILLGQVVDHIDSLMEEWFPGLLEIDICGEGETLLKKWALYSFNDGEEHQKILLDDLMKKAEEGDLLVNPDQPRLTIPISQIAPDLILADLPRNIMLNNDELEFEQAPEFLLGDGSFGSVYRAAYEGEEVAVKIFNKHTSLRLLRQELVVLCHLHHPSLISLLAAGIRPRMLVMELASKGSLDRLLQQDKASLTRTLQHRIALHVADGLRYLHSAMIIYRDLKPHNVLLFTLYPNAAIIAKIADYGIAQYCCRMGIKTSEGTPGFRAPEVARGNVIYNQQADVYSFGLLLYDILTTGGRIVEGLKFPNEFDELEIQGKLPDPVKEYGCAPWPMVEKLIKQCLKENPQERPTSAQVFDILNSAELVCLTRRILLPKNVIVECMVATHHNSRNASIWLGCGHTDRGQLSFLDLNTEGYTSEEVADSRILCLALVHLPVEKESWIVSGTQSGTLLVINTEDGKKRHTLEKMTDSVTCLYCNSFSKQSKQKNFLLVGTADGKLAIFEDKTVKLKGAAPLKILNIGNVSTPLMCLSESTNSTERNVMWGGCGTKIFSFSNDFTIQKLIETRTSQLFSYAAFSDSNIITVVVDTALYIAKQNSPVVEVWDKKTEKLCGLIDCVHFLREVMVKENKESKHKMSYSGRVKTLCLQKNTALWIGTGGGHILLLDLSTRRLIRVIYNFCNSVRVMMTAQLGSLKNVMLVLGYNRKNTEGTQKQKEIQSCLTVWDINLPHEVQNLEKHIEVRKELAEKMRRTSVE

Structure (SMILES)	IC50
N[C@H]1CC[C@@H](COc2ccnc(Nc3ccc(N4CCOCC4)cc3)n2)CC1 [Example 1, 4-(((1S,4S)-4-aminocyclohexyl)methoxy)-N-(4-morpholinophenyl) pyrimidin-2-amine]	< 50 nM
N[C@H]1CC[C@H](COc2ccnc(Nc3ccc(N4CCOCC4)cc3)n2)CC1 [Example 2, 4-(((1R,4R)-4-aminocyclohexyl)methoxy)-N-(4-morpholinophenyl) pyrimidin-2-amine]	< 50 nM
Cn1ccc(Nc2nccc(OC[C@H]3CC[C@@H](N)CC3)n2)n1 [Example 3, 4-(((1S,4S)-4-aminocyclohexyl)methoxy)-N-(1-methyl-1H-pyrazol-3-yl) pyrimidin-2-amine]	50 to 200 nM
Cn1ccc(Nc2nccc(OC[C@H]3CC[C@H](N)CC3)n2)n1 [Example 4, 4-(((1R,4R)-4-aminocyclohexyl)methoxy)-N-(1-methyl-1H-pyrazol-3-yl)pyrimidin-2-amine]	50 to 200 nM
N[C@H]1CC[C@H](COc2ccnc(Nc3ccn(CC(F)F)n3)n2)CC1 [Example 5, 4-(((1R,4R)-4-aminocyclohexyl)methoxy)-N-(1-(2,2-difluoroethyl)-1H-pyrazol-3-yl) pyrimidin-2-amine]	50 to 200 nM
N[C@H]1CC[C@H](COc2ccnc(Nc3cccc(N4CCOCC4)c3)n2)CC1 [Example 6, 4-(((1R,4R)-4-aminocyclohexyl)methoxy)-N-(3-morpholinophenyl) pyrimidin-2-amine]	< 50 nM
N[C@H]1CC[C@H](COc2nc(Nc3ccc(N4CCOCC4)cc3)ncc2C(F)(F)F)CC1 [Example 7, 4-(((1R,4R)-4-aminocyclohexyl)methoxy)-N-(4-morpholinophenyl)-5-(trifluoromethyl) pyrimidin-2-amine]	> 400 nM
COc1cnc(Nc2ccc(N3CCOCC3)cc2)nc1OC[C@H]1CC[C@H](N)CC1 [Example 8, 4-(((1R,4R)-4-aminocyclohexyl)methoxy)-5-methoxy-N-(4-morpholinophenyl) pyrimidin-2-amine]	< 50 nM
N[C@H]1CC[C@H](COc2nc(Nc3ccc(N4CCOCC4)cc3)ncc2Cl)CC1 [Example 9, 4-(((1R,4R)-4-aminocyclohexyl)methoxy)-5-chloro-N-(4-morpholinophenyl) pyrimidin-2-amine]	< 50 nM
N[C@H]1CC[C@H](COc2nc(Nc3ccc(N4CCOCC4)cc3)ncc2F)CC1 [Example 10, 4-(((1R,4R)-4-aminocyclohexyl)methoxy)-5-fluoro-N-(4-morpholinophenyl) pyrimidin-2-amine]	< 50 nM
NC1CCCC(COc2ccnc(Nc3ccc(N4CCOCC4)cc3)n2)C1 (stereo not drawn) [Example 11, 4-((3-aminocyclohexyl)methoxy)-N-(4-morpholinophenyl) pyrimidin-2-amine]	50 to 200 nM
NC[C@H]1CC[C@H](COc2ccnc(Nc3ccc(N4CCOCC4)cc3)n2)CC1 [Example 12, 4-(((1R,4R)-4-(aminomethyl)cyclohexyl)methoxy)-N-(4-morpholinophenyl) pyrimidin-2-amine]	< 50 nM
COc1cnc(Nc2ccc(N3CCOCC3)cc2)nc1OC[C@H]1CC[C@H](CN)CC1 [Example 13, 4-(((1R,4R)-4-(aminomethyl)cyclohexyl)methoxy)-5-methoxy-N-(4-morpholinophenyl) pyrimidin-2-amine]	< 50 nM
NC[C@H]1CC[C@H](COc2nc(Nc3ccc(N4CCOCC4)cc3)ncc2Cl)CC1 [Example 14, 4-(((1R,4R)-4-(aminomethyl)cyclohexyl)methoxy)-5-chloro-N-(4-morpholinophenyl) pyrimidin-2-amine]	< 50 nM
N[C@H]1CC[C@@H](COc2ccnc(Nc3ccc(N4CCOCC4)cc3)n2)C1 [Example 15, 4-(((1R,3S)-3-aminocyclopentyl)methoxy)-N-(4-morpholinophenyl) pyrimidin-2-amine]	50 to 200 nM
N[C@H]1CC[C@@H](COc2nc(Nc3ccc(N4CCOCC4)cc3)ncc2Cl)C1 [Example 16, 4-(((1R,3S)-3-aminocyclopentyl)methoxy)-5-chloro-N-(4-morpholinophenyl) pyrimidin-2-amine]	< 50 nM
c1cc(OCC2CCNCC2)nc(Nc2ccc(N3CCOCC3)cc2)n1 [Example 17, N-(4-morpholinophenyl)-4-(piperidin-4-ylmethoxy)pyrimidin-2-amine]	200 to 400 nM
Cc1nn(C(C)(C)C#N)cc1Nc1ncc(F)c(OCC2CCNCC2)n1 [Example 18, 2-(4-((5-fluoro-4-(piperidin-4-ylmethoxy)pyrimidin-2-yl)amino)-3-methyl-1H-pyrazol-1-yl)-2-methylpropanenitrile]	50 to 200 nM
Cc1nn(C(C)(C)C#N)cc1Nc1nccc(OCC2(F)CCNCC2)n1 [Example 19, 2-(4-((4-((4-fluoropiperidin-4-yl)methoxy)pyrimidin-2-yl)amino)-3-methyl-1H-pyrazol-1-yl)-2-methylpropanenitrile]	200 to 400 nM
Cc1nn(C(C)(C)C#N)cc1Nc1ncc(Cl)c(OCC2(F)CCNCC2)n1 [Example 20, 2-(4-((5-chloro-4-((4-fluoropiperidin-4-yl)methoxy)pyrimidin-2-yl)amino)-3-methyl-1H-pyrazol-1-yl)-2-methylpropanenitrile]	< 50 nM
Cc1nn(C2CC(C#N)C2)cc1Nc1ncc(Cl)c(OCC2(F)CCNCC2)n1 (stereo not drawn) [Example 21, 3-(4-((5-chloro-4-((4-fluoropiperidin-4-yl)methoxy)pyrimidin-2-yl)amino)-3-methyl-1H-pyrazol-1-yl)cyclobutane-1-carbonitrile]	< 50 nM

Continued, values first:

IC50	Structure (SMILES)
200 to 400 nM	CC(=O)N1CCC(COc2nc(Nc3ccc(N4C[C@@H](C)O[C@@H](C)C4)cc3)ncc2F)C(F)C1 (single isomer, unassigned) [Example 175]
200 to 400 nM	CC(=O)N1CCC(COc2nc(Nc3cn(C(C)(C)C#N)nc3C)ncc2F)C(F)C1 (single isomer, unassigned) [Example 176, 2-(4-((4-((1-acetyl-3-fluoropiperidin-4-yl)methoxy)-5-fluoropyrimidin-2-yl)amino)-3-methyl-1H-pyrazol-1-yl)-2-methylpropanenitrile]
> 400 nM	CC(=O)N1CCC(COc2nc(Nc3cn(C(C)(C)C#N)nc3C)ncc2F)C(F)C1 (single isomer, unassigned) [Example 177, 2-(4-((4-((1-acetyl-3-fluoropiperidin-4-yl)methoxy)-5-fluoropyrimidin-2-yl)amino)-3-methyl-1H-pyrazol-1-yl)-2-methylpropanenitrile]
< 50 nM	Cc1nn(C(C)(C)C#N)cc1Nc1ncc(F)c(OCC2CCCC(O)CC2)n1 (single isomer, unassigned) [Example 263, 2-(4-((5-fluoro-4-((4-hydroxycycloheptyl)methoxy)pyrimidin-2-yl)amino)-3-methyl-1H-pyrazol-1-yl)-2-methylpropanenitrile]
> 400 nM	Fc1cnc(Nc2ccc(N3CCOCC3)cc2)nc1OCC1CCC(OC(F)(F)F)CC1 (single isomer, unassigned) [Example 281, 5-fluoro-N-(4-morpholinophenyl)-4-((4-(trifluoromethoxy)cyclohexyl)methoxy)pyrimidin-2-amine]
> 400 nM	Fc1cnc(Nc2ccc(N3CCOCC3)cc2)nc1OCC1CCC(OC(F)(F)F)CC1 (single isomer, unassigned) [Example 282, 5-fluoro-N-(4-morpholinophenyl)-4-((4-(trifluoromethoxy)cyclohexyl)methoxy)pyrimidin-2-amine]
< 50 nM	Cc1nn(C(C)(C)C#N)cc1Nc1ncc(F)c(OCC2CC(C#N)C2)n1 (single isomer, unassigned) [Example 290, 3-(((2-((1-(2-cyanopropan-2-yl)-3-methyl-1H-pyrazol-4-yl)amino)-5-fluoropyrimidin-4-yl)oxy)methyl)cyclobutane-1-carbonitrile]
< 50 nM	Cc1nn(C(C)(C)C#N)cc1Nc1ncc(F)c(OCC2CC(C#N)C2)n1 (single isomer, unassigned) [Example 291, 3-(((2-((1-(2-cyanopropan-2-yl)-3-methyl-1H-pyrazol-4-yl)amino)-5-fluoropyrimidin-4-yl)oxy)methyl)cyclobutane-1-carbonitrile]
< 50 nM	Cc1c(Nc2ncc(Cl)c(OCC3(F)CCNCC3)n2)cnn1C1CC(C#N)C1 (stereo not drawn) [Example 22, 3-(4-((5-chloro-4-((4-fluoropiperidin-4-yl)methoxy)pyrimidin-2-yl)amino)-5-methyl-1H-pyrazol-1-yl)cyclobutane-1-carbonitrile]
< 50 nM	C[C@@H]1CN(c2ccc(Nc3ncc(F)c(OCC4(F)CCNCC4)n3)cc2)C[C@H](C)O1 [Example 23, N-(4-((2R,6S)-2,6-dimethylmorpholino)phenyl)-5-fluoro-4-((4-fluoropiperidin-4-yl)methoxy) pyrimidin-2-amine]
50 to 200 nM	Fc1cnc(Nc2ccc(N3CCOCC3)cc2)nc1OCC1(F)CCNCC1 [Example 24, 5-fluoro-4-((4-fluoropiperidin-4-yl)methoxy)-N-(4-morpholinophenyl) pyrimidin-2-amine]
< 50 nM	Cc1nn(C(C)(C)C#N)cc1Nc1ncc(F)c(OCC2(F)CCNCC2)n1 [Example 25, 2-(4-((5-fluoro-4-((4-fluoropiperidin-4-yl)methoxy)pyrimidin-2-yl)amino)-3-methyl-1H-pyrazol-1-yl)-2-methylpropanenitrile]
